Reference: the NIST ThermoML archive (doi:10.1016/j.jct.2008.01.006)
± gives the expanded uncertainty stated by the source.

Settings: Liquid, Vibrating tube method

CCCCCCCN [1-heptanamine]
mass density [kg/m3]
Settings	293.15 K	303.15 K	313.15 K	323.15 K	333.15 K	343.15 K	353.15 K
100 kPa	774.9 ± 0.4	766.5 ± 0.4	758.2 ± 0.4	749.8 ± 0.4	741.4 ± 0.4	732.6 ± 0.5	724.4 ± 0.5
10000 kPa	781.1 ± 0.5	773.6 ± 0.5	765.4 ± 0.5	757.6 ± 0.5	749.5 ± 0.5	741.7 ± 0.5	733.7 ± 0.6
20000 kPa	787.1 ± 0.5	780 ± 0.6	772 ± 0.6	764.5 ± 0.6	756.8 ± 0.6	749.6 ± 0.6	741.9 ± 0.6
30000 kPa	792.6 ± 0.6	785.8 ± 0.6	778.2 ± 0.7	771 ± 0.7	763.4 ± 0.7	756.7 ± 0.7	749.3 ± 0.7
40000 kPa	797.8 ± 0.7	791.3 ± 0.7	784 ± 0.7	777 ± 0.8	769.6 ± 0.8	763.3 ± 0.8	756.2 ± 0.8
50000 kPa	802.7 ± 0.8	796.5 ± 0.8	789.3 ± 0.8	782.6 ± 0.9	775.5 ± 0.9	769.4 ± 0.9	762.6 ± 0.9
60000 kPa	807.4 ± 0.9	801.3 ± 0.9	794.5 ± 0.9	787.8 ± 0.9	780.9 ± 1	775.1 ± 1	768.7 ± 1
70000 kPa	811.8 ± 0.9	806 ± 1	799.2 ± 1	792.7 ± 1	786.2 ± 1	780.4 ± 1.1	774.2 ± 1.1
80000 kPa	816.1 ± 1	810.4 ± 1	803.7 ± 1.1	797.5 ± 1.1	791.1 ± 1.1	785.5 ± 1.2	779.5 ± 1.2
90000 kPa	820.2 ± 1.1	814.6 ± 1.1	808 ± 1.2	802 ± 1.2	795.6 ± 1.2	790.3 ± 1.2	784.3 ± 1.3
100000 kPa	824 ± 1.2	818.7 ± 1.2	812.2 ± 1.2	806.3 ± 1.3	800 ± 1.3	794.9 ± 1.3	789.2 ± 1.3
110000 kPa	827.8 ± 1.2	822.5 ± 1.3	816.2 ± 1.3	810.6 ± 1.3	804.3 ± 1.4	799.2 ± 1.4	793.7 ± 1.4
120000 kPa	831.5 ± 1.3	826.2 ± 1.3	820.1 ± 1.4	814.5 ± 1.4	808.4 ± 1.4	803.3 ± 1.5	797.9 ± 1.5
130000 kPa	835 ± 1.3	829.9 ± 1.4	823.8 ± 1.4	818.4 ± 1.5	812.4 ± 1.5	807.4 ± 1.5	802.1 ± 1.6
140000 kPa	838.3 ± 1.4	833.3 ± 1.4	827.4 ± 1.5	822.1 ± 1.5	816.2 ± 1.6	811.3 ± 1.6	806.1 ± 1.6
